Laboratory results from ChEMBL document CHEMBL1135945, “CoMFA and HQSAR of acylhydrazide cruzain inhibitors” (Bioorg Med Chem Lett, 2002).

Target: Cruzipain (Trypanosoma cruzi, UniProt P25779)
Assay: Inhibition of cruzain, the major cysteine protease from Trypanosoma cruzi

Chain of Cruzipain (P25779 whole entry): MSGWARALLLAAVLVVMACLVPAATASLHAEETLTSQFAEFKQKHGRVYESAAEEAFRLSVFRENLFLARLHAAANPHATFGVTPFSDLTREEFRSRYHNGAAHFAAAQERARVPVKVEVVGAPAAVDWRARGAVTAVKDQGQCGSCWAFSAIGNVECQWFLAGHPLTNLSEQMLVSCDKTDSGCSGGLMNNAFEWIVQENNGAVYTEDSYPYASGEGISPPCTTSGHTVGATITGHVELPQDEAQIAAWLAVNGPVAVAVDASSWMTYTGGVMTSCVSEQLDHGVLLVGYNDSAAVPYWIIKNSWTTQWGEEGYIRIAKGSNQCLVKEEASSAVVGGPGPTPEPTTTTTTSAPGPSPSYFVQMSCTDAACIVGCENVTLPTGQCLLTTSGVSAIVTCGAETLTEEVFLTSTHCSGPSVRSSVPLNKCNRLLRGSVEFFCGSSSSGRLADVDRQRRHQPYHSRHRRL

SMILES | IC50 [µM]
COc1ccc(C(=O)N/N=C/c2ccoc2)c(OC)c1 | 166
O=C(N/N=C/c1ccc(-c2ccccc2[N+](=O)[O-])o1)c1ccccc1O | 20
CN(C)c1ccc(/C=N/NC(=O)c2ccnc3ccccc23)c2ccccc12 | 6.03
O=C(N/N=C/c1ccc(C(=O)O)o1)c1cccc([N+](=O)[O-])c1 | 331
O=C(N/N=C/c1ccc(-c2ccccc2Cl)o1)c1cc2ccccc2cc1O | 0.603
O=C(N/N=C/c1ccc(-c2cccc([N+](=O)[O-])c2)o1)c1ccc2ccccc2c1 | 6.03
CN(C)c1ccc(/C=N/NC(=O)c2ccc(O)c(O)c2)c2ccccc12 | 16.2
CN(C)c1ccc(/C=N/NC(=O)c2ccccc2)c2ccccc12 | 0.501
COc1cc(OC)cc(C(=O)N/N=C/c2ccc(C(=O)O)o2)c1 | 10
O=C(N/N=C/c1ccc([N+](=O)[O-])o1)c1cccc([N+](=O)[O-])c1 | 5.01

The remaining lines, values ahead:

IC50 [µM] | SMILES
30.2 | O=C(N/N=C/c1ccnc2ccccc12)c1ccccc1O
100 | O=C(N/N=C/c1ccc(-c2ccc(Cl)cc2)o1)c1ccccc1O
6.03 | O=C(N/N=C/c1ccc([N+](=O)[O-])o1)c1cc2ccccc2cc1O
0.2 | COc1ccc2cc(O)c(C(=O)N/N=C/c3ccc(-c4cc(C(F)(F)F)nn4C)s3)cc2c1
10 | CSc1ccc(/C=N/NC(=O)c2cccc(C)c2O)s1
30.2 | O=C(N/N=C/c1cc(Br)cs1)c1cnc2ccccc2c1
